The values that follow come from patent US20110190249A1, “THERAPEUTIC METHODS AND USES OF SAPOGENINS AND THEIR DERIVATIVES” (PHYTOPHARM PLC, priority 2002, published 2011).

Assay [1] has as its system m3 receptor. Description: m3 receptor density in CHO-β2/m3 co-transfected cell line. It is filed as cell-based. Particulars: day 5. An excerpt:
(§1) The effects of epismilagenin cathylate, sarsasapogenin cathylate, episarsasapogenin cathylate, episarsasapogenin succinate, epismilagenin acetate and sarsasapogenin on the expression of muscarinic acetylcholine receptor (m) in CHO cells or β2 and m3 receptors in CHO cells transfected with either a vector for the m receptor or co-transfected with the vector for β2 and m3 receptors were investigated.
(§2) The results are illustrated in Table 1 below and in FIG. 1 of the drawings. Over the culturing period of CHO cells transfected with a vector for the m receptor, treatment with epismilagenin cathylate, sarsasapogenin cathylate, episarsasapogenin cathylate, episarsasapogenin succinate and sarsasapogenin each prevents the decrease in m receptor number.

The test system of assay [2] is β2 adrenoceptor. In words: β2 adrenoceptor density in CHO-β2/m3 co-transfected cell line. Particulars: day 5. Type of assay: cell-based.
Text: as §1, §2

As for `CC(=O)OC1CCC2(C)C(CCC3C2CCC2(C)C3CC3OC4(CCC(C)CO4)C(C)C32)C1` (centres unmarked) [epismilagenin acetate], in assay [1], the “density of m3 receptors” value is reported as “did not significantly alter”. Moreover, the “decrease in β2 adrenoceptors (density)” value in assay [2] is recorded as “significantly prevented the decrease”.
